Data on 1 compound can be found in patent US20240050359A1, “COSMETIC USES OF A HIPPOPHAE RHAMNOIDES CAKE HYDROLYSATE” (BASF Beauty Care Solutions France SAS, priority 2020, published 2024).

Each structure is given as a SMILES string.

Format in all cases: cell-based
One assay has as its system Human follicles. The assay can be described thus: Ex vivo hair shaft elongation of cultured follicles. The note with it: capsaicin (10 μm). The protocol:
Materials and method: Human follicles were cultured ex vivo in complete growth medium containing 0.5 μg/ml insulin, and treated with capsaicin […]. The latter molecule is used as an agent causing slowing of follicle growth. A control condition without capsaicin treatment was produced. Capsaicin-sensitized follicles were treated or not with 0.03% (w/v) H. rhamnoides hydrolyzate. Each culture condition was evaluated on […] cultured in isolation (n=10). The follicles were incubated at 37° C. in the presence of 5% CO2. The culture medium was renewed three times a week for approximately 2 weeks. The elongation of the hair shafts of the cultured follicles was obtained from photographs taken on different days. The hair length was evaluated by image analysis (Image J) and presented in μm as a mean±standard error.

Assay [1] concerns fibroblasts from the papilla of human hair follicles. The assay can be described thus: Amount of DNA in papilla fibroblasts grown as aggregates. The conditions noted are these: capsaicin 10 μM. The method, then: Materials and method: A suspension composed of fibroblasts from the papilla of human hair follicles and basal culture medium, containing 0.05% v/v growth factor cocktail and the presence or absence of the H. rhamnoides hydrolyzate to be tested, was centrifuged for 5 minutes at 200×g to form aggregates. Control conditions were produced by adding 0.05% v/v growth factor cocktail (ethanol EtOH control) and adding capsaicin (10 μm) as a cell sensitizer (capsaicin control) to the basal culture medium. The aggregates were incubated at a temperature of 37° C. under controlled atmosphere (5% CO2 and 95% relative humidity). The aggregates were rinsed in buffered saline solution (PBS) and the cells were separated by incubation in a mixture of proteases (collagenase A, trypsin) with EDTA. A portion of the suspended cells was taken up in PBS for flow cytometry analysis. The cell count and autofluorescence are the two parameters measured. Autofluorescence is a direct parameter easily measured and used as a marker of cell senescence ([…] et al. 1982). The cell count is an indirect parameter of the growth potential of the hair follicle. […] These two parameters were measured according to the suppliers' instructions (CyQuant NF Cell proliferation Assay Kit C35006, Invitrogen and Bioluminescence Assay Kit CLS II Roche 11699695001, Sigma-Aldrich).

Assay [2] shares this test system. The experiment in a line: Flow cytometry of papilla fibroblasts grown as aggregates (number, granularity, autofluorescence). The conditions noted are these: capsaicin 10 μM; Control (EtOH) = 100. The protocol:
(§1) Materials and method: A suspension composed of fibroblasts from the papilla of human hair follicles and basal culture medium, containing 0.05% v/v growth factor cocktail and the presence or absence of the H. rhamnoides hydrolyzate to be tested, was centrifuged for 5 minutes at 200×g to form aggregates. Control conditions were produced by adding 0.05% v/v growth factor cocktail (ethanol EtOH control) and adding capsaicin (10 μm) as a cell sensitizer (capsaicin control) to the basal culture medium. The aggregates were incubated at a temperature of 37° C. under controlled atmosphere (5% CO2 and 95% relative humidity). The aggregates were rinsed in buffered saline solution (PBS) and the cells were separated by incubation in a mixture of proteases (collagenase A, trypsin) with EDTA. A portion of the suspended cells was taken up in PBS for flow cytometry analysis. The cell count and autofluorescence are the two parameters measured. Autofluorescence is a direct parameter easily measured and used as a marker of cell senescence ([…] et al. 1982). The cell count is an indirect parameter of the growth potential of the hair follicle. Another portion of cells was used for analysis of the cell DNA content and ATP production rate. These two parameters were measured according to the suppliers' instructions (CyQuant NF Cell proliferation Assay Kit C35006, Invitrogen and Bioluminescence Assay Kit CLS II Roche 11699695001, Sigma-Aldrich).

The test system is the same in assay [3]. The experiment in a line: ATP production by papilla fibroblasts grown as aggregates. The note with it: capsaicin 10 μM. The method, then:
as §1

Take `COc1cc(CNC(=O)CCCC/C=C/C(C)C)ccc1O` [Capsaicin, capsaicin]: the “hair elongation MEAN (μm)” value is recorded as 0 μm in the assay on Human follicles (Day 0); 806 μm in the assay on Human follicles (Day 6); 861 μm in the assay with Human follicles (Day 8); 869 μm in the assay with Human follicles (Day 11); 938 μm in the assay with Human follicles (Day 13); 936 μm with Human follicles (Day 15). Moreover, the “amount of DNA % deviation vs control” value in assay [1] is given as −77%. The “amount of DNA MEAN” value in assay [1] (EtOH control = 100) worked out at 23. Further, in assay [2], the “Autofluorescence (%)” value is given as 235%. Besides, the “Granularity (%)” value in assay [2] came to 217%. Besides, the “Number of cells (%)” value in assay [2] is reported as 28%. In addition, in assay [3], the “ATP production % Activity” value is −76%. Further, the “reduction of the production of ATP relative to the control (ethanol)” value in assay [3] amounted to 76%. The “ATP production MEAN” value in assay [3] (EtOH control = 100) was found to be 24.
